Results from patent publication US4272437A, “Antibacterial agents, and 4-thio azetidinone intermediates” (priority 1979, dated 1981).
Converted amounts (≈) assume the structure as drawn. Where two headings read alike, the source gives them in different places.

Columns and labels:
[1] = system: Staph. aureus A-9537 and 50% serum; assay: MIC, tube dilution, Staph. aureus A9537 + 50% serum; type: cell-based, Staphylococcus aureus; conditions: Staphylococcus aureus, overnight 37° C., read-out: Minimum Inhibitory Concentration (M.I.C.)
Description: (§1) Representative compounds of the present invention were subjected to in vitro antibiotic screening against a variety of microorganisms.

K. pneumoniae A-15130 = assay: MIC, tube dilution, Klebsiella pneumoniae A15130; type: cell-based; conditions: Klebsiella pneumoniae, A15130, K. pneumoniae A15130; overnight 37° C.; read-out: Minimum Inhibitory Concentration (M.I.C.)
Description: as §1

Str. pneumoniae A-9585 = assay: MIC, tube dilution, Streptococcus pneumoniae A9585; type: cell-based; conditions: Streptococcus pneumoniae, A9585, Str. pneumoniae A9585; overnight 37° C., Nutrient Broth; read-out: Minimum Inhibitory Concentration (M.I.C.)
Description: as §1

Str. faecalis A-20688 = assay: MIC, tube dilution, Streptococcus faecalis A20688; type: cell-based; conditions: Enterococcus faecalis, A20688, Str. faecalis A20688; overnight 37° C.; read-out: Minimum Inhibitory Concentration (M.I.C.)
Description: as §1

Str. pyogenes A-9604 = assay: MIC, tube dilution, Streptococcus pyogenes A9604; type: cell-based; conditions: Streptococcus pyogenes, A9604, Str. pyogenes A9604; overnight 37° C., Nutrient Broth; read-out: Minimum Inhibitory Concentration (M.I.C.)
Description: as §1

Proteus rettgeri A21203 = assay: MIC, tube dilution, Proteus rettgeri A21203; type: cell-based; conditions: Providencia rettgeri, A21203, Proteus rettgeri A21203; overnight 37° C.; read-out: Minimum Inhibitory Concentration (M.I.C.)
Description: as §1

[2] = system: Staph. aureus (Pen-Res) A-9606; assay: MIC, tube dilution, Staphylococcus aureus A9606 (Pen-Res); type: cell-based; conditions: Staphylococcus aureus, overnight 37° C.
Description: as §1

Ps. aeruginosa A-21213 = assay: MIC, tube dilution, Pseudomonas aeruginosa A21213; type: cell-based; conditions: overnight 37° C., read-out: Minimum Inhibitory Concentration (M.I.C.)
Description: as §1

Ps. aeruginosa A-9843A = assay: MIC, tube dilution, Pseudomonas aeruginosa A9843A; type: cell-based; conditions: Pseudomonas aeruginosa, A9843A, read-out: Minimum Inhibitory Concentration (M.I.C.), Pseudomonas aeruginosa A9843A; overnight 37° C.
Description: as §1

Pr. mirabilis A-9900 = assay: MIC, tube dilution, Proteus mirabilis A9900; type: cell-based; conditions: Proteus mirabilis, A9900, Proteus mirabilis A9900; overnight 37° C.; read-out: Minimum Inhibitory Concentration (M.I.C.)
Description: as §1

Pr. vulgaris A-9716 = assay: MIC, tube dilution, Proteus vulgaris / Proteus mirabilis A9716; type: cell-based, Proteus vulgaris (name changed to Proteus mirabilis); conditions: Proteus vulgaris, overnight 37° C.
Description: as §1

Ser. marcescens A-20019 = assay: MIC, tube dilution, Serratia marcescens A20019; type: cell-based; conditions: Serratia marcescens, A20019, Serratia marcescens A20019; overnight 37° C.; read-out: Minimum Inhibitory Concentration (M.I.C.)
Description: as §1

Pr. morganii A-15153 = assay: MIC, tube dilution, Proteus morganii A15153; type: cell-based; conditions: Morganella morganii, A15153, Proteus morganii A15153; overnight 37° C.; read-out: Minimum Inhibitory Concentration (M.I.C.)
Description: as §1

Ent. cloacae A-9656 = assay: MIC, tube dilution, Enterobacter cloacae A9656; type: cell-based; conditions: overnight 37° C., read-out: Minimum Inhibitory Concentration (M.I.C.)
Description: as §1

E. coli A-15119 = assay: MIC, tube dilution, Escherichia coli A15119; type: cell-based; conditions: Escherichia coli, A15119, E. coli A15119; overnight 37° C.; read-out: Minimum Inhibitory Concentration (M.I.C.)
Description: as §1

[3] = system: Staph. aureus (Meth-Res) A-15097; assay: MIC, tube dilution, Staphylococcus aureus A15097 (Meth-Res); type: cell-based; conditions: Staphylococcus aureus, overnight 37° C.
Description: as §1

[4] = stability in aqueous solution followed by UV; type: physicochemical; parameters: unit not given here; conditions: for ε at λmax 255 in aqueous solution (stability) / ε at λmax 307 in aqueous solution (stability) / ε at λmax 254 in aqueous solution (stability): UV
Method: To a solution of penem 3 (2.4 g, 6.89 mmoles) in tetrahydrofuran-ether-water mixture (1:1:1, 165 ml) was added 30% palladium on diatomaceous earth (4.8 g). The reaction mixture was hydrogenated under 45 p.s.i. at 23° C. for 2.5 h and filtered over celite pad. The filtrate and washings were combined, washed twice with ether, centrifugated and filtered several times to give a clear solution which was lyophilized; 0.622 g, 45%. The crystallization of the compound was induced by the addition of water (0.8 ml); the suspension was centrifuged and the water was removed leaving an orange solid. This solid was washed twice with water and a slightly yellow solid was obtained after drying: […], 19.8%. UV λmax^H.sbsp.2^O : 307 (ε=4318) and 257 (ε=2650). Some crude starting material (1.2 g, 50%) was recovered. The compound (50 mg) can also be purified by column chromatography [Sephadex G10, column size: 1.6×100 cm, flow rate: 10 ml/h, eluent: distilled water, fraction volume: 1.5 ml, detector: refractive index]. UV λmax^H.sbsp.2^O 307 (ε=3597) and 255 (ε=2424).
The stability of the compound in aqueous solution was checked by:
A sample of compound 4 was kept at 23° C. for 3 days and the UV was taken: UV λmax^H.sbsp.2^O : 307 (ε=3055) and 255 (ε=2008).
To a solution of ester 6 (200 mg, 0.5 mmole) in tetrahydrofuran (10 ml) was added ether (10 ml), water (10 ml) and 30% palladium on diatomaceous earth (200 mg). The reaction mixture was hydrogenated in a Parr apparatus under 35 p.s.i. at 25° C. for 2 h 30 min and filtered over a celite pad. The filtrate was washed twice with ether and the aqueous solution was lyophilized, giving a yellow powder which was purified by column chromatography [Sephadex G-10, bed dimensions: 100×1.6 cm, flow rate: 12 ml/h, eluent: distilled water, fraction volume: 1.5 ml detector: refractive index]. The right fractions were combined and lyophilized to give a white powder (10 mg, 8.8%). UV λmax^H.sbsp.2 O 301 (ε=4930), 258 (ε=3290). IR (KBr) cm^-1 :1770 (c=o of β-lactam) and 1580 [drawing 587] The stability of compound 7 in aqueous solution was followed by UV; after 6 h: 301 (4795) and 258 (3105) and after 72 h: 301 (4565) and 258 (3150). […]

E. coli A-20341-1 = assay: MIC, tube dilution, Escherichia coli A20341-1; type: cell-based
Description: as §1

Staph. aureus A-9537 = assay: MIC, tube dilution, Staphylococcus aureus A9537; type: cell-based; conditions: Staphylococcus aureus, A9537, Staph. aureus A9537; overnight 37° C., Nutrient Broth; read-out: Minimum Inhibitory Concentration (M.I.C.)
Description: as §1

[5] = system: Klebsiella species A20468; assay: MIC, tube dilution, Klebsiella species A20468; type: cell-based; conditions: Klebsiella species (K. pneumoniae) A20468; overnight 37° C.; read-out: Minimum Inhibitory Concentration (M.I.C.)
Description: as §1

Ent. cloacae A-9659 = assay: MIC, tube dilution, Enterobacter cloacae A9659; type: cell-based; conditions: Enterobacter cloacae, A9659, Enterobacter cloacae A9659; overnight 37° C.; read-out: Minimum Inhibitory Concentration (M.I.C.)
Description: as §1

[6] = system: Providencia stuartii A21205; assay: MIC, tube dilution, Providencia stuartii (Pr. rettgeri) A21205; type: cell-based; conditions: Providencia stuartii, A21205, read-out: Minimum Inhibitory Concentration (M.I.C.)
Description: as §1

[7] = sample kept at 23° C. for 3 days, UV in H2 O

SMILES: NCC1=C(C(=O)O)N2C(=O)CC2S1 (centres unmarked) [Example 16, 2-Aminomethylpenem-3-carboxylic Acid]
- MIC [1]: 32 µg/mL
- MIC (K. pneumoniae A-15130): 8 µg/mL (≈ 40 µM)
- MIC (Str. pneumoniae A-9585): 1 µg/mL (≈ 4.99 µM)
- MIC (Str. faecalis A-20688): > 125 µg/mL
- MIC (Str. pyogenes A-9604): 4 µg/mL (≈ 20 µM)
- MIC (Proteus rettgeri A21203): 1 µg/mL (≈ 4.99 µM)
- MIC ([2]; Staph. aureus A9606 (Pen-Res), read-out: Minimum Inhibitory Concentration (M.I.C.)): 8 µg/mL (≈ 40 µM)
- MIC (Ps. aeruginosa A-21213; Pseudomonas aeruginosa, A21213, Pseudomonas aeruginosa A21213): 1 µg/mL (≈ 4.99 µM)
- MIC (Ps. aeruginosa A-9843A): 1 µg/mL (≈ 4.99 µM)
- MIC (Pr. mirabilis A-9900): 2 µg/mL (≈ 9.99 µM)
- MIC (Pr. vulgaris A-9716; A9716, Proteus vulgaris / Proteus mirabilis A9716, read-out: Minimum Inhibitory Concentration (M.I.C.)): 2 µg/mL (≈ 9.99 µM)
- MIC (Ser. marcescens A-20019): 8 µg/mL (≈ 40 µM)
- MIC (Pr. morganii A-15153): 1 µg/mL (≈ 4.99 µM)
- MIC (Ent. cloacae A-9656; Enterobacter cloacae, A9656, Enterobacter cloacae A9656): 8 µg/mL (≈ 40 µM)
- MIC (E. coli A-15119): 4 µg/mL (≈ 20 µM)
- MIC ([3]; Staph. aureus A15097 (Meth-Res), read-out: Minimum Inhibitory Concentration (M.I.C.)): 63 µg/mL (≈ 315 µM)
- ε at λmax 255 in aqueous solution (stability) ([4]; 6 h): 2773
- ε at λmax 307 in aqueous solution (stability) ([4]; 6 h): 3545
- ε at λmax 255 in aqueous solution (stability) ([4]; 21 h): 2411
- ε at λmax 307 in aqueous solution (stability) ([4]; 21 h): 3467
- ε at λmax 254 in aqueous solution (stability) ([4]; 28 h): 2398
- ε at λmax 307 in aqueous solution (stability) ([4]; 28 h): 3337
- ε at λmax 254 in aqueous solution (stability) ([4]; 46 h): 2398
- ε at λmax 307 in aqueous solution (stability) ([4]; 46 h): 3259
- ε at λmax 307 in aqueous solution (stability) ([4]; 70 h): 3076
- ε at λmax 307 in aqueous solution (stability) ([4]; 94 h): 2842
- ε at λmax 307 in aqueous solution (stability) ([4]; 170 h): 1900
- ε at λmax 255 (stability of stored sample) [4, 7]: 2008
- ε at λmax 307 (stability of stored sample) [4, 7]: 3055
- MIC (E. coli A-20341-1; Escherichia coli, A203411, E. coli A20341-1; overnight 37° C.; read-out: Minimum Inhibitory Concentration (M.I.C.)): 16 µg/mL (≈ 79.9 µM)
- MIC (Staph. aureus A-9537): 2 µg/mL (≈ 9.99 µM)
- MIC [5]: 125 µg/mL (≈ 624 µM)
- MIC (Ent. cloacae A-9659): 8 µg/mL (≈ 40 µM)

SMILES: COC1=C(C(=O)[O-])N2C(=O)C[C@H]2S1.[Na+] [Preparation 17, Sodium 2-Methoxypenem-3-carboxylate]
- MIC [1]: > 32 µg/mL
- MIC (K. pneumoniae A-15130): > 63 µg/mL
- MIC (Str. pneumoniae A-9585): > 2 µg/mL
- MIC (Str. faecalis A-20688): > 63 µg/mL
- MIC [6]: > 63 µg/mL
- MIC (Str. pyogenes A-9604): > 2 µg/mL
- MIC ([2]; read-out: Minimum Inhibitory Concentration (M.I.C.), Staph. aureus A9606 (Pen-Res)): > 63 µg/mL
- MIC (Ps. aeruginosa A-21213; Pseudomonas aeruginosa A21213): > 63 µg/mL
- MIC (Ps. aeruginosa A-9843A): > 63 µg/mL
- MIC (Pr. mirabilis A-9900): > 63 µg/mL
- MIC (Pr. vulgaris A-9716; A9716, read-out: Minimum Inhibitory Concentration (M.I.C.), Proteus vulgaris / Proteus mirabilis A9716): > 63 µg/mL
- MIC (Ser. marcescens A-20019): > 63 µg/mL
- MIC (Pr. morganii A-15153): > 63 µg/mL
- MIC (Ent. cloacae A-9656; Enterobacter cloacae A9656): > 63 µg/mL
- MIC (E. coli A-15119): > 63 µg/mL
- MIC ([3]; read-out: Minimum Inhibitory Concentration (M.I.C.), Staph. aureus A15097 (Meth-Res)): > 63 µg/mL
- MIC (E. coli A-20341-1; Escherichia coli, A203411; E. coli A20341-1; overnight 37° C.; read-out: Minimum Inhibitory Concentration (M.I.C.)): > 63 µg/mL
- MIC (Staph. aureus A-9537): > 2 µg/mL
- MIC [5]: > 63 µg/mL
- MIC (Ent. cloacae A-9659): > 63 µg/mL
